Measurements published in patent publication US20030036111A1, “Mitochondrial protein” (priority 2001, published 2003).
Entries after “also recorded” stand apart in the source; their conditions may differ.

What was measured:
Assay type in all cases: biochemical
[1] = biological target: T1, human DNC (mitochondrial deoxynucleotide carrier) (Homo sapiens, UniProt Q9HC21); experiment: Inhibition of [α-35S]dATP uptake (dATP/ADP exchange) by external substrates and carrier inhibitors; conditions: for Ki, competitive inhibition of [α-35 S]dATP uptake by external substrate: internal ADP or dADP 10 mM; for Ki: read-out: Ki, competitive inhibition of [α-35 S]dATP uptake by external substrate
T1 construct: Amino acids are numbered from 1-320; made in house; host or cells: E. coli BL21(DE3), pET21b; inclusion bodies solubilized in sarkosyl, Ni-NTA purified
T1 sequence (Q9HC21 2-320 limits assumed): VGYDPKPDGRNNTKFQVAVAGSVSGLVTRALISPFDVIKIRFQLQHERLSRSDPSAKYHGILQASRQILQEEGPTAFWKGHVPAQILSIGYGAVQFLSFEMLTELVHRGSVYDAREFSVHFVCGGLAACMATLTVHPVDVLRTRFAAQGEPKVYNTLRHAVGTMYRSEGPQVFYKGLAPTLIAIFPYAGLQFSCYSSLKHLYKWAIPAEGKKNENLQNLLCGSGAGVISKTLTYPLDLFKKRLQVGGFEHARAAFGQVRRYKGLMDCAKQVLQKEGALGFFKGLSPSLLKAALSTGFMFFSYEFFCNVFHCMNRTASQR

[2] = biological target: T1, human DNC (mitochondrial deoxynucleotide carrier); experiment: Dependence of DNC activity ([α-35S]dATP uptake) on internal substrate; conditions: internal substrate 10 mM; for rate of [α-35 S]dATP uptake into proteoliposomes with internal substrate: 2 min
Description: FIG. 3. Time course of dATP/ADP exchange and substrate specificity of human DNC. (a) Time course of [α-35 S]dATP/ADP exchange in proteoliposomes reconstituted with the recombinant DNC. [α-35 S]dATP (1 mM) was added to proteoliposomes containing 10 mM ADP (⋄) or 10 mM NaCl (∇). (b) Dependence of DNC activity on internal substrate. Proteoliposomes were preloaded internally with various substrates (concentration 10 mM). Trans-port was started by addition of […] [α-35 S]dATP and stopped after 2 min. The values are means 6 SD of at least three experiments. (c) Inhibition of the rate of [α-35 S]dATP uptake by external substrates. Proteoliposomes were preloaded internally with 10 mM ADP. […] External substrates (concentration 0.5 mM) were added together with [α-35 S]dATP. The extents of inhibition (%) from a representative experiment are reported.
(§1) The recombinant protein in sarkosyl was reconstituted into liposomes in the presence of substrates (10). […] Transport was measured at 25° C. with internal and external pHs at 6.8. It was started by adding [α-35S]dATP or [^14C]-ADP and terminated after 2 min by addition of 100 mM of p-chloromercuribenzene sulfonate (10). Entrapped radioactivity was counted (10). The initial transport rate was calculated from the radioactivity taken up by proteoliposomes within 2 min (in the initial linear range). Other transport activities were assayed similarly (10).

[3] = biological target: T1, human DNC (mitochondrial deoxynucleotide carrier); experiment: Inhibition of [α-35S]dATP uptake (dATP/ADP exchange) by external substrates and carrier inhibitors; conditions: external substrates 0.5 mM; internal 10 mM ADP; 125 mM [α-35 S]dATP; 2 min
Description: FIG. 3. Time course of dATP/ADP exchange and substrate specificity of human DNC. (a) Time course of [α-35 S]dATP/ADP exchange in proteoliposomes reconstituted with the recombinant DNC. [α-35 S]dATP (1 mM) was added to proteoliposomes containing 10 mM ADP (⋄) or 10 mM NaCl (∇). (b) Dependence of DNC activity on internal substrate. Proteoliposomes were preloaded internally with various substrates (concentration 10 mM). Trans-port was started by addition of […] [α-35 S]dATP and stopped after 2 min. The values are means 6 SD of at least three experiments. (c) Inhibition of the rate of [α-35 S]dATP uptake by external substrates. Proteoliposomes were preloaded internally with 10 mM ADP. Transport was started by adding […] [α-35 S]dATP and stopped after 2 min. External substrates (concentration 0.5 mM) were added together with [α-35 S]dATP. The extents of inhibition (%) from a representative experiment are reported.
The recombinant protein in sarkosyl was reconstituted into liposomes in the presence of substrates (10). Both cardiolipin (1.14 mg/ml) and EDTA (1 mM) were added. Transport was measured at 25° C. with internal and external pHs at 6.8. It was started by adding [α-35S]dATP or [^14C]-ADP and terminated after 2 min by addition of 100 mM of p-chloromercuribenzene sulfonate (10). Entrapped radioactivity was counted (10). The initial transport rate was calculated from the radioactivity taken up by proteoliposomes within 2 min (in the initial linear range). Other transport activities were assayed similarly (10).

[4] = biological target: T1, human DNC (mitochondrial deoxynucleotide carrier); experiment: Homo-exchange of other carrier substrates in DNC proteoliposomes; conditions: internal concentration 10 mM; external concentration 1 mM
Description: as §1

[5] = inhibitor 2 mM, internal 10 mM ADP, 2 min
[6] = inhibitor 10 mM, internal 10 mM ADP, 2 min
[7] = inhibitor 0.1 mM, internal 10 mM ADP, 2 min

rate of [α-35 S]dATP uptake into proteoliposomes with internal substrate [2]	effect of external substrate on [α-35 S]dATP/ADP exchange [3]	Molecule	further results
lower rate	–	Nc1ncnc2c1ncn2[C@@H]1O[C@H](COP(=O)(O)OP(=O)(O)OP(=O)(O)O)[C@@H](O)[C@H]1O [ATP]	–
virtually no activity	no effect	Nc1ncnc2c1ncn2[C@@H]1O[C@H](CO)[C@@H](O)[C@H]1O [adenosine]	–
virtually no activity	–	O=C(O)CC(O)(CC(=O)O)C(=O)O [citrate]	–
virtually no activity	no effect	Nc1ccn([C@H]2C[C@H](O)[C@@H](CO)O2)c(=O)n1 [deoxycytidine]	–
virtually no activity	no effect	Nc1nc2c(ncn2[C@H]2C[C@H](O)[C@@H](CO)O2)c(=O)[nH]1 [deoxyguanosine]	–
virtually no activity	no effect	O=c1ccn([C@H]2C[C@H](O)[C@@H](CO)O2)c(=O)[nH]1 [deoxyuridine]	–
virtually no activity	–	NCC(=O)O [glycine]	–
virtually no activity	no effect	Nc1nc2nc[nH]c2c(=O)[nH]1 [guanine]	–
virtually no activity	no effect	Nc1nc2c(ncn2[C@@H]2O[C@H](CO)[C@@H](O)[C@H]2O)c(=O)[nH]1 [guanosine]	–
virtually no activity	no effect	Cc1c[nH]c(=O)[nH]c1=O [thymine]	–
virtually no activity	no effect	O=c1ccn([C@@H]2O[C@H](CO)[C@@H](O)[C@H]2O)c(=O)[nH]1 [uridine]	–

The remaining lines, values behind:

Molecule	rate of [α-35 S]dATP uptake into proteoliposomes with internal substrate [2]	effect of external substrate on [α-35 S]dATP/ADP exchange [3]	further results
O=C(O)c1cccc(C(=O)O)c1C(=O)O [1,2,3-benzenetricarboxylate]	–	–	dATP/ADP exchange rate reduced to (remaining rate) [1, 5]: 40%
Nc1ccn([C@@H]2O[C@H](COP(=O)(O)OP(=O)(O)O)[C@@H](O)[C@H]2O)c(=O)n1 [CDP]	significant activities	–	–
Nc1nc2c(ncn2[C@@H]2O[C@H](COP(=O)(O)OP(=O)(O)O)[C@@H](O)[C@H]2O)c(=O)[nH]1 [GDP]	significant activities; also recorded: rather poorly	–	–
CCN1C(=O)C=CC1=O [N-ethylmaleimide]	–	–	inhibition of uptake of [α-35 S]dATP [1, 5]: No significant inhibition
NC(=O)C1=CN([C@@H]2O[C@H](COP(=O)(O)OP(=O)(O)OC[C@H]3O[C@@H](n4cnc5c(N)ncnc54)[C@H](O)[C@@H]3O)[C@@H](O)[C@H]2O)C=CC1 [NADH]	virtually no activity	–	–
O=c1ccn([C@@H]2O[C@H](COP(=O)(O)OP(=O)(O)O)[C@@H](O)[C@H]2O)c(=O)[nH]1 [UDP]	significant activities	–	–
N#CC(=Cc1ccc(O)cc1)C(=O)O [a-cyano-4-hydroxycinnamate]	–	–	inhibition of uptake of [α-35 S]dATP [1, 5]: No significant inhibition
Nc1ncnc2nc[nH]c12 [adenine]	virtually no activity	no effect	–
c1ccc(-c2ccnc3c2ccc2c(-c4ccccc4)ccnc23)cc1 [bathophenathroline]	–	–	inhibition of uptake of [α-35 S]dATP [1, 6]: 41%
CO[C@H](C/C=C\C=C\CC/C=C/C[C@H](C)/C=C/C(=C\C(=O)O)CC(=O)O)/C(C)=C\C=C(/C)C(=O)O [bongkrekate]	–	–	inhibition of uptake of [α-35 S]dATP ([1]; inhibitor 0.01 mM, internal 10 mM ADP, 2 min): 37%
CCCCC(C(=O)O)C(=O)O [butylmalonate]	–	–	inhibition of uptake of [α-35 S]dATP [1, 5]: No significant inhibition
C=C1[C@@H]2CC[C@H]3[C@]4(C)C[C@H](O[C@@H]5O[C@H](CO)[C@@H](OS(=O)(=O)O)[C@H](OS(=O)(=O)O)[C@H]5OC(=O)CC(C)C)CC(C(=O)O)(C(=O)O)[C@H]4CC[C@]3(C2)[C@H]1O [carboxyatractyloside]	–	–	inhibition of uptake of [α-35 S]dATP [1, 7]: 42%
Nc1ccn([C@@H]2O[C@H](CO)[C@@H](O)[C@H]2O)c(=O)n1 [cytidine]	virtually no activity	no effect	–
C=C1[C@@H](C)[C@H]2[C@H](Cc3ccccc3)NC(=O)[C@]23OC(=O)/C=C/[C@H](O)CCC[C@@H](C)C/C=C/[C@H]3[C@@H]1O [cytochalasin B]	–	–	inhibition of uptake of [α-35 S]dATP ([1]; inhibitor 0.033 mM, internal 10 mM ADP, 2 min): No significant inhibition
Nc1cc[nH]c(=O)n1 [cytosine]	virtually no activity	no effect	–
O=c1ccn([C@H]2C[C@H](O)[C@@H](COP(=O)(O)OP(=O)(O)O)O2)c(=O)[nH]1 [dUDP]	–	–	Ki, competitive inhibition of [α-35 S]dATP uptake by external substrate [1]: higher
O=c1ccn([C@H]2C[C@H](O)[C@@H](COP(=O)(O)OP(=O)(O)OP(=O)(O)O)O2)c(=O)[nH]1 [dUTP]	–	–	Ki, competitive inhibition of [α-35 S]dATP uptake by external substrate [1]: higher
Nc1ncnc2c1ncn2[C@H]1CC[C@@H](COP(=O)(O)OP(=O)(O)OP(=O)(O)O)O1 [ddATP]	–	–	Ki [1]: 25 µM
Nc1ccn([C@H]2CC[C@@H](COP(=O)(O)OP(=O)(O)OP(=O)(O)O)O2)c(=O)n1 [ddCTP]	–	–	Ki [1]: 70 µM
Nc1ncnc2c1ncn2[C@H]1C[C@H](O)[C@@H](CO)O1 [deoxyadenosine]	virtually no activity	no effect	–
Cc1cn([C@H]2C[C@H](O)[C@@H](CO)O2)c(=O)[nH]c1=O [deoxythymidine]	virtually no activity	no effect	–
O=C(O)/C=C/C(=O)O [fumarate]	–	–	homo-exchange catalysed by reconstituted DNC [4]: did not catalyse
O=S(=O)([O-])c1cc[c]([Hg][Cl])cc1 [p-chloromercuribenzene sulfonate]	–	–	inhibition of uptake of [α-35 S]dATP [1, 7]: completely
O=C(O)CC(C(=O)O)c1ccccc1 (stereo not shown) [phenylsuccinate]	–	–	inhibition of uptake of [α-35 S]dATP [1, 5]: No significant inhibition
Cc1ncc(COP(=O)(O)O)c(C=O)c1O [pyridoxal 5′-phosphate]	–	–	inhibition of uptake of [α-35 S]dATP [1, 6]: completely
O=P(O)(O)OP(=O)(O)O [pyrophosphate]	much lower activities	–	exchange relative to ADP exchange ([2]; [α-35 S]dATP uptake): 22%
O=c1cc[nH]c(=O)[nH]1 [uracil]	virtually no activity	no effect	–
dADP	highest rates	–	–
phosphate	virtually no activity	–	–
